Results: article PMC9516332 (Frontiers in Oncology, 2022)
Like-named read-outs stand apart in the source and are kept apart here.

Tested on: 134 cancer cell lines
Assay: Cell viability assay (ATPlite, 72 hours), IC50 on cancer cell line panel

CCN1CCN(c2ccc(Nc3cc(N(C)C(=O)Nc4c(Cl)c(OC)cc(OC)c4Cl)ncn3)cc2)CC1 [infigratinib]
IC50 (Homo sapiens, MV4-11, read-out: IC50 in cell proliferation assay, MV4-11 cell line (FLT3 ITD)): 2.57 µM | IC50 (Homo sapiens, MeWo, read-out: IC50 in cell proliferation assay, MeWo cell line): > 3.16 µM | IC50 (Homo sapiens, NCCIT, read-out: IC50 in cell proliferation assay, NCC-IT cell line): 0.466 µM | IC50 (Homo sapiens, NCI-H82, read-out: IC50 in cell proliferation assay, cell line NCI-H82): > 3.16 µM | IC50 (Homo sapiens, NCI-H460, read-out: IC50 in cell proliferation assay, NCI-H460 cell line): > 3.16 µM | IC50 (Homo sapiens, NCI-H661, read-out: IC50 in cell proliferation assay, NCI-H661 cell line): > 3.16 µM | IC50 (Homo sapiens, NCI-H716, read-out: IC50 in cell proliferation assay, cell line NCI-H716 (FGFR2-COL14A1)): 0.02 µM | IC50 (Homo sapiens, NCI-H1650, read-out: IC50 in cell proliferation assay, NCI-H1650 cell line (EGFR exon19del)): 5.09 µM | IC50 (Homo sapiens, NCI-H1975, read-out: IC50 in cell proliferation assay, NCI-H1975 cell line (EGFR p.L858R + p.T790M)): > 3.16 µM | IC50 (Homo sapiens, NCI-H2228, read-out: IC50 in cell proliferation assay, NCI-H2228 cell line (EML4-ALK)): 4.38 µM | IC50 (Homo sapiens, OVCAR-3, read-out: IC50 in cell proliferation assay, cell line OVCAR-3): > 3.16 µM | IC50 (Homo sapiens, PFSK-1, read-out: IC50 in cell proliferation assay, cell line PFSK-1): > 3.16 µM | IC50 (Homo sapiens, RL95-2, read-out: IC50 in cell proliferation assay, cell line RL95-2 (EGFR p.A289V)): > 3.16 µM | IC50 (Homo sapiens, RPMI-7951, read-out: IC50 in cell proliferation assay, cell line RPMI-7951 (BRAF p.V600E)): > 3.16 µM | IC50 (Homo sapiens, RS4-11, read-out: IC50 in cell proliferation assay, cell line RS4;11): > 3.16 µM | IC50 (Homo sapiens, Rec1, read-out: IC50 in cell proliferation assay, cell line REC-1): 4 µM | IC50 (Homo sapiens, SHP77, read-out: IC50 in cell proliferation assay, cell line SHP-77): > 3.16 µM | IC50 (Homo sapiens, SK-BR-3, read-out: IC50 in cell proliferation assay, cell line SK-BR-3 (ERBB2 amplification)): > 3.16 µM | IC50 (Homo sapiens, SK-N-AS, read-out: IC50 in cell proliferation assay, cell line SK-N-AS): > 3.16 µM | IC50 (Homo sapiens, SK-N-FI, read-out: IC50 in cell proliferation assay, cell line SK-N-FI): > 3.16 µM | IC50 (Homo sapiens, SK-N-MC, read-out: IC50 in cell proliferation assay, cell line SK-N-MC): 3.21 µM | IC50 (Homo sapiens, SK-N-SH, read-out: IC50 in cell proliferation assay, cell line SK-N-SH (ALK p.F1174L)): 4.47 µM | IC50 (Homo sapiens, SNU-5, read-out: IC50 in cell proliferation assay, cell line SNU-5 (MET amplification)): > 3.16 µM | IC50 (Homo sapiens, SNU-16, read-out: IC50 in cell proliferation assay, cell line SNU-16 (FGFR2 amplification)): 0.028 µM | IC50 (Homo sapiens, SNU-C2B, read-out: IC50 in cell proliferation assay, cell line SNU-C2B (EGFR p.R165Q)): > 3.16 µM | IC50 (Homo sapiens, SU-DHL-1, read-out: IC50 in cell proliferation assay, cell line SU-DHL-1 (NPM1-ALK)): > 3.16 µM | IC50 (Homo sapiens, SU-DHL-6, read-out: IC50 in cell proliferation assay, cell line SU-DHL-6): > 3.16 µM | IC50 (Homo sapiens, SUP-T1, read-out: IC50 in cell proliferation assay, cell line SUP-T1): > 3.16 µM | IC50 (Homo sapiens, SW48, read-out: IC50 in cell proliferation assay, cell line SW48 (EGFR p.G719S)): > 3.16 µM | IC50 (Homo sapiens, SW480, read-out: IC50 in cell proliferation assay, cell line SW480): > 3.16 µM | IC50 (Homo sapiens, SW626, read-out: IC50 in cell proliferation assay, cell line SW626): > 3.16 µM | IC50 (Homo sapiens, SW780, read-out: IC50 in cell proliferation assay, cell line SW780 (FGFR3-BAIAP2L1)): 0.039 µM | IC50 (Homo sapiens, SW837, read-out: IC50 in cell proliferation assay, cell line SW837): > 3.16 µM | IC50 (Homo sapiens, SW872, read-out: IC50 in cell proliferation assay, cell line SW872 (BRAF p.V600E)): > 3.16 µM | IC50 (Homo sapiens, SW900, read-out: IC50 in cell proliferation assay, cell line SW900): > 3.16 µM | IC50 (Homo sapiens, SW948, read-out: IC50 in cell proliferation assay, cell line SW948): > 3.16 µM | IC50 (Homo sapiens, SW982, read-out: IC50 in cell proliferation assay, cell line SW982 (BRAF p.V600E)): > 3.16 µM | IC50 (Homo sapiens, SW-620, read-out: IC50 in cell proliferation assay, cell line SW620): > 3.16 µM | IC50 (Homo sapiens, T98G, read-out: IC50 in cell proliferation assay, cell line T98G): 0.135 µM | IC50 (Homo sapiens, TCC-SUP, read-out: IC50 in cell proliferation assay, cell line TCCSUP): > 3.16 µM | IC50 (Homo sapiens, THP-1, read-out: IC50 in cell proliferation assay, cell line THP-1): > 3.16 µM | IC50 (Homo sapiens, U2OS, read-out: IC50 in cell proliferation assay, cell line U2OS): > 3.16 µM | IC50 (Homo sapiens, U-87 MG, read-out: IC50 in cell proliferation assay, cell line U-87MG ATCC): > 3.16 µM | IC50 (Homo sapiens, U-118-MG, read-out: IC50 in cell proliferation assay, cell line U-118MG): > 3.16 µM | IC50 (Homo sapiens, UMUC3, read-out: IC50 in cell proliferation assay, cell line UM-UC-3): 0.625 µM | IC50 (Hs766T, read-out: IC50 in cell proliferation assay, Hs 766T cell line): > 3.16 µM | IC50 (Rh30, read-out: IC50 in cell proliferation assay, cell line Rh30): 0.525 µM | IC50 (read-out: IC50 in cell proliferation assay, 11-18 cell line (EGFR p.L858R)): > 3.16 µM | IC50 (read-out: IC50 in cell proliferation assay, Hs 852.T cell line): 5.37 µM | IC50 (read-out: IC50 in cell proliferation assay, JAR cell line): 2.99 µM | IC50 (read-out: IC50 in cell proliferation assay, cell line 5637): > 3.16 µM | IC50 (read-out: IC50 in cell proliferation assay, cell line A-388): > 3.16 µM | IC50 (read-out: IC50 in cell proliferation assay, cell line DB): > 3.16 µM | IC50 (read-out: IC50 in cell proliferation assay, cell line DEL (NPM1-ALK)): 3.51 µM | IC50 (read-out: IC50 in cell proliferation assay, cell line ES-2 (BRAF p.V600E)): > 3.16 µM | IC50 (read-out: IC50 in cell proliferation assay, cell line PA-1): 2.15 µM | IC50 (read-out: IC50 in cell proliferation assay, cell line PC-3): > 3.16 µM | IC50 (read-out: IC50 in cell proliferation assay, cell line RD): > 3.16 µM | IC50 (read-out: IC50 in cell proliferation assay, cell line RKO (BRAF p.V600E)): > 3.16 µM | IC50 (read-out: IC50 in cell proliferation assay, cell line RL): > 3.16 µM | IC50 (read-out: IC50 in cell proliferation assay, cell line RT-4 (FGFR3-TACC3)): 0.014 µM | IC50 (read-out: IC50 in cell proliferation assay, cell line SR (NPM1-ALK)): > 3.16 µM | IC50 (read-out: IC50 in cell proliferation assay, cell line T24): > 3.16 µM | IC50 (read-out: IC50 in cell proliferation assay, cell line TT (RET p.C634W)): > 3.16 µM | IC50 (read-out: IC50 in cell proliferation assay, cell line VA-ES-BJ): > 3.16 µM
